Results as given in patent publication US8772297B2, “TGF-β signal transduction inhibitor” (Kyoto University, priority 2010, dated 2014).

How the values were obtained:
[1] = tested on: ARPE-19 cells; experiment: Evaluation of TGF-β-induced epithelial-mesenchymal transition (EMT) inhibitory activity; assay type: cell-based; details: human TGF-β2 10 ng/mL and human TNF 10 ng/mL, 2 days, Giemsa stain, FIG. 1
Protocol: Human retinal pigment epithelial cells (ARPE-19 cells) were seeded in a 96 well plate at a concentration of 1.2×10^4 cells/well, and cultured overnight (5% CO2, 37° C.) in DMEM/F12 medium containing 10% fetal bovine serum, penicillin (100 U/mL), streptomycin (100 μg/mL) and Hepes (10 mM). The next day, the medium was changed to a serum-free medium, and a test compound was added. After 1 hr, the cells were stimulated with human TGF-β2 (10 ng/mL) and human TNF (10 ng/mL). After culture for 2 days, the cells were stained with Giemsa, and the influence of the compound on the formation of cell aggregates was evaluated.

[2] = tested on: liver Kupffer cells; experiment: Influence on activation of liver Kupffer cells in primary culture system; assay type: cell-based; details: rat primary culture, 7 days
Protocol: Wistar rat (bred under SPF, male, 15-week-old) was subjected to laparotomy under pentobarbital anesthesia, a catheter was inserted into the portal vein, and perfusion was performed successively with a washing solution for hemorrhage, a 0.06% pronase solution (manufactured by Carbiochem), and a 0.03% collagenase (manufactured by Wako Pure Chemical Industries, Ltd.) solution. Then, the liver was isolated and incubated in a liver Kupffer cell separation buffer containing 0.057% pronase and 0.057% collagenase, and supplemented with 2 mg/mL DNaseI (1 mL, manufactured by Roche Diagnostics) in a warm bath at 36° C. for 30 min. During this period, the pH of the lysate was maintained at 7.2-7.4 with 1N NaOH. Then, the hepatic tissue digestive product was filtered through a mesh, a liver Kupffer cell separation buffer was added to the obtained filtrate to the total amount of 150 mL. The mixture was dispensed to three 50-mL polypropylene tubes, and centrifuged at 4° C., 2000 rpm for 8 min. […]
On the other hand, respective cells were washed with phosphate buffer (PBS: phosphate buffered saline) 7 days later, and fixed with 4% para-formaldehyde at room temperature for 10 min. […] Then, the cells were washed with PBST, and the α smooth muscle actin (αSMA) expression level was observed under a fluorescence microscope.

[3] = tested on: mouse bile duct ligation induced hepatic fibrosis model; experiment: Anti-fibrillization action in mouse bile duct ligation induced hepatic fibrosis model (BDL model); assay type: in vivo; details: ICR mice, tail vein once a day for 14 days, qPCR vs GAPDH, FIG. 4
Protocol: Hepatopathy caused by accumulation of bile in the liver and therewith associated liver fibrillization are induced by ligating the bile duct of mouse. The effect of the test compound on the hepatopathy and liver fibrillization associated therewith was evaluated. […]
mRNA was extracted from the hepatic tissue preserved in RNALater by using an RNA purification kit RNeasy Micro Kit (manufactured by QIAGEN), and the RNA concentration was determined using a spectrophotometer (Nano Drop). […] Using SYBR® Premix EX Taq™ (manufactured by TAKARA), a reaction mixture was prepared according to the package insert, qPCR reaction was performed using respective primers for αSMA and the internal standard GAPDH (manufactured by Invitrogen), and the mRNA expression level was quantified.

CN(C)c1ccc(NS(=O)(=O)c2cccc(S(=O)(=O)NCC3CCN(C(=O)OC(C)(C)C)CC3)c2)cc1-c1ccco1 [Y244, 4-{[3-(4-dimethylamino-3-furan-2-yl-phenylsulfamoyl)benzenesulfonylamino]methyl}piperidine-1-carboxylic acid tert-butyl ester]
EMT induced by TGF-β (formation of cell aggregates) [1]: remarkably suppressed | expression of α smooth muscle actin associated with the activation of liver Kupffer cells ([2]; Cy3-labeled anti-αSMA antibody, fluorescence microscope, FIG. 3): remarkably suppressed | cell morphology change caused by the activation of liver Kupffer cells ([2]; bright field, FIG. 2): suppressed | mRNA expression level of α smooth muscle actin in the liver tissue [3]: significantly suppressed
